# Laboratory results published in patent US20150343060A1, “TREATMENT OF CIRCULATING TUMOR CELLS USING AN EXTRACORPOREAL DEVICE” (priority 2014, published 2015).
# Tested on: A431 cells
# Test: Probe incubation, irradiation at 24 J/cm^2 and NucleoCounter NC-3000 cell vitality assay after about 24 hours
# Type: cell-based, human
# Conditions: for Cell Number / Cell Vitality: 24 J/cm^2, about 24 hours after irradiation, EGF probe 0.5 μM, panitumumab probe 0.1 μM
# Protocol: A431 cells were plated and incubated with either probe for 5 minutes, 10 minutes or 20 minutes prior to washing and irradiation at 24 J/cm^2. […] After irradiation, the cells were cultured at 37° C., 5% CO2 for approximately 24 hours. The NucleoCounter® NC-3000™ cell vitality assay (Chemometec, Allerød, Denmark) was performed.
substance,measurement,setting,value
IRDye® 700DX-panitumumab,Cell Number,5 minutes probe incubation,"675,000 cells/mL"
same,Cell Vitality,5 minutes probe incubation,44.2%
same,Cell Number,10 minutes probe incubation,"323,000 cells/mL"
same,Cell Vitality,10 minutes probe incubation,34%
same,Cell Number,20 minutes probe incubation,"550,000 cells/mL"
same,Cell Vitality,20 minutes probe incubation,31%
same,effect of longer incubation time on cell death,"20 minutes vs. 5 minutes incubation, 24 J/cm^2",increased the number of cells undergoing cell death
same,cell death averaged over the time periods,"average over 5, 10 and 20 minutes incubation, 24 J/cm^2",about 60%
